In the supplement of paper PMC10307832:

Columns and labels:
Assay in all cases: relative viability (nuclei count vs DMSO), 5 days (fraction); higher = more cells survive
[1] = system: LOU-NH91
Summary of the method: (§1)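 Relative viability divides the nuclei count in treated wells by that in vehicle wells. Lung cancer cell lines were seeded in 1536-well plates, dosed by pin tool the next day, and fixed and stained after 5 days in one step with final 0.05% Triton X-100, 1% formaldehyde and 1 ug/ml Hoechst. Dosing was a single drug or a fixed anchor-drug dose plus five library-drug doses (not always all listed) in √10 steps, and values are medians of duplicate plates imaged at 4×.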

[2] = system: HCC-827
Summary of the method: as §1

[3] = system: NCI-H2085
Summary of the method: as §1

[4] = system: NCI-H1666
Summary of the method: as §1

[5] = system: NCI-H2087
Summary of the method: as §1

[6] = system: 201T
Summary of the method: as §1

[7] = system: SW 1573
Summary of the method: as §1

[8] = system: COR-L 105
Summary of the method: as §1

[9] = system: LU99A
Summary of the method: as §1

[10] = system: NCI-H2342
Summary of the method: as §1

[11] = system: NCI-H647
Summary of the method: as §1

[12] = system: HOP-62
Summary of the method: as §1

[13] = system: NCI-H1437
Summary of the method: as §1

[14] = system: EKVX
Summary of the method: as §1

[15] = system: H3255
Summary of the method: as §1

[16] = system: LCLC-97TM1
Summary of the method: as §1

[17] = system: NCI-H1975
Summary of the method: as §1

[18] = system: EPLC-272H
Summary of the method: as §1

[19] = system: PC-3 [JPC-3]
Summary of the method: as §1

[20] = system: BEN
Summary of the method: as §1

[21] = system: NCI-H1395
Summary of the method: as §1

[22] = system: NCI-H358
Summary of the method: as §1

## NC(=O)Nc1cc(-c2cccc(F)c2)sc1C(=O)N[C@H]1CCCNC1 [AZD7762] + COc1cc2c(Oc3ccc(NC(=O)C4(C(=O)Nc5ccc(F)cc5)CC4)cc3F)ccnc2cc1OCCCN1CCOCC1 [Foretinib] (partner 0.25 µM)
[1]; first compound 0.01 µM
  relative viability: 0.925
[1]; first compound 0.03162 µM
  relative viability: 0.947
[1]; first compound 0.1 µM
  relative viability: 0.96
[1]; first compound 0.3162 µM
  relative viability: 0.93
[1]; first compound 1 µM
  relative viability: 0.737
[2]; first compound 0.01 µM
  relative viability: 0.975
[2]; first compound 0.03162 µM
  relative viability: 1.06
[2]; first compound 0.1 µM
  relative viability: 1.02
[2]; first compound 0.3162 µM
  relative viability: 1.08
[2]; first compound 1 µM
  relative viability: 0.853
[3]; first compound 0.01 µM
  relative viability: 0.946
[3]; first compound 0.03162 µM
  relative viability: 0.938
[3]; first compound 0.1 µM
  relative viability: 0.865
[3]; first compound 0.3162 µM
  relative viability: 1.21
[3]; first compound 1 µM
  relative viability: 0.697
[4]; first compound 0.01 µM
  relative viability: 1.03
[4]; first compound 0.03162 µM
  relative viability: 1.07
[4]; first compound 0.1 µM
  relative viability: 1.14
[4]; first compound 0.3162 µM
  relative viability: 1.12
[4]; first compound 1 µM
  relative viability: 0.849
[5]; first compound 0.01 µM
  relative viability: 1.28
[5]; first compound 0.03162 µM
  relative viability: 1.12
[5]; first compound 0.1 µM
  relative viability: 1.34
[5]; first compound 0.3162 µM
  relative viability: 1.32
[5]; first compound 1 µM
  relative viability: 1.29
[6]; first compound 0.01 µM
  relative viability: 1.17
[6]; first compound 0.03162 µM
  relative viability: 1.26
[6]; first compound 0.1 µM
  relative viability: 1.11
[6]; first compound 0.3162 µM
  relative viability: 0.961
[6]; first compound 1 µM
  relative viability: 0.279
[7]; first compound 0.01 µM
  relative viability: 0.845
[7]; first compound 0.03162 µM
  relative viability: 0.866
[7]; first compound 0.1 µM
  relative viability: 0.99
[7]; first compound 0.3162 µM
  relative viability: 1.12
[7]; first compound 1 µM
  relative viability: 1.02
[8]; first compound 0.01 µM
  relative viability: 1.25
[8]; first compound 0.03162 µM
  relative viability: 1.01
[8]; first compound 0.1 µM
  relative viability: 1.01
[8]; first compound 0.3162 µM
  relative viability: 1.09
[8]; first compound 1 µM
  relative viability: 0.643
[9]; first compound 0.01 µM
  relative viability: 0.798
[9]; first compound 0.03162 µM
  relative viability: 0.828
[9]; first compound 0.1 µM
  relative viability: 0.791
[9]; first compound 0.3162 µM
  relative viability: 0.822
[9]; first compound 1 µM
  relative viability: 0.537
[10]; first compound 0.01 µM
  relative viability: 0.992
[10]; first compound 0.03162 µM
  relative viability: 1.14
[10]; first compound 0.1 µM
  relative viability: 1.09
[10]; first compound 0.3162 µM
  relative viability: 1.1
[10]; first compound 1 µM
  relative viability: 1.25
[11]; first compound 0.01 µM
  relative viability: 1.23
[11]; first compound 0.03162 µM
  relative viability: 1.32
[11]; first compound 0.1 µM
  relative viability: 1.23
[11]; first compound 0.3162 µM
  relative viability: 1.19
[11]; first compound 1 µM
  relative viability: 0.326
[12]; first compound 0.01 µM
  relative viability: 1.17
[12]; first compound 0.03162 µM
  relative viability: 1.14
[12]; first compound 0.1 µM
  relative viability: 1.23
[12]; first compound 0.3162 µM
  relative viability: 1.1
[12]; first compound 1 µM
  relative viability: 1.14
[13]; first compound 0.01 µM
  relative viability: 1.27
[13]; first compound 0.03162 µM
  relative viability: 1.31
[13]; first compound 0.1 µM
  relative viability: 1.24
[13]; first compound 0.3162 µM
  relative viability: 1.02
[13]; first compound 1 µM
  relative viability: 1.13
[14]; first compound 0.01 µM
  relative viability: 0.64
[14]; first compound 0.03162 µM
  relative viability: 0.741
[14]; first compound 0.1 µM
  relative viability: 0.956
[14]; first compound 0.3162 µM
  relative viability: 0.387
[14]; first compound 1 µM
  relative viability: 0.522
[15]; first compound 0.01 µM
  relative viability: 1.12
[15]; first compound 0.03162 µM
  relative viability: 0.875
[15]; first compound 0.1 µM
  relative viability: 0.972
[15]; first compound 0.3162 µM
  relative viability: 0.89
[15]; first compound 1 µM
  relative viability: 0.859
[16]; first compound 0.01 µM
  relative viability: 0.891
[16]; first compound 0.03162 µM
  relative viability: 0.88
[16]; first compound 0.1 µM
  relative viability: 1.02
[16]; first compound 0.3162 µM
  relative viability: 0.95
[16]; first compound 1 µM
  relative viability: 0.948
[17]; first compound 0.01 µM
  relative viability: 0.926
[17]; first compound 0.03162 µM
  relative viability: 0.943
[17]; first compound 0.1 µM
  relative viability: 0.964
[17]; first compound 0.3162 µM
  relative viability: 0.854
[17]; first compound 1 µM
  relative viability: 0.624
[18]; first compound 0.01 µM
  relative viability: 0.676
[18]; first compound 0.03162 µM
  relative viability: 0.654
[18]; first compound 0.1 µM
  relative viability: 0.654
[18]; first compound 0.3162 µM
  relative viability: 0.615
[18]; first compound 1 µM
  relative viability: 0.256
[19]; first compound 0.01 µM
  relative viability: 1.06
[19]; first compound 0.03162 µM
  relative viability: 1.06
[19]; first compound 0.1 µM
  relative viability: 1.04
[19]; first compound 0.3162 µM
  relative viability: 1.13
[19]; first compound 1 µM
  relative viability: 1.02
[20]; first compound 0.01 µM
  relative viability: 0.714
[20]; first compound 0.03162 µM
  relative viability: 0.747
[20]; first compound 0.1 µM
  relative viability: 0.621
[20]; first compound 0.3162 µM
  relative viability: 0.507
[20]; first compound 1 µM
  relative viability: 0.596
[21]; first compound 0.01 µM
  relative viability: 0.974
[21]; first compound 0.03162 µM
  relative viability: 1.08
[21]; first compound 0.1 µM
  relative viability: 1.1
[21]; first compound 0.3162 µM
  relative viability: 0.91
[21]; first compound 1 µM
  relative viability: 0.452
[22]; first compound 0.01 µM
  relative viability: 0.532
[22]; first compound 0.03162 µM
  relative viability: 0.76
[22]; first compound 0.1 µM
  relative viability: 0.628
[22]; first compound 0.3162 µM
  relative viability: 0.647
[22]; first compound 1 µM
  relative viability: 0.378
